Results from publication PMC4241505 (Nature communications, 2014).
Ends that are not written are not given here.

Tested on: cathepsins B, H, and S
Conditions: pH 5

Compound	Peptides detected on MALDI after digesting synthetic epitope with cathepsins
CC(C)C[C@H](NC(=O)[C@H](CCCCN)NC(=O)[C@H](CC(C)C)NC(=O)[C@@H](NC(=O)[C@H](CC(N)=O)NC(=O)[C@H](CCC(N)=O)NC(=O)[C@H](CCCCN)NC(=O)[C@@H](NC(=O)[C@H](Cc1ccc(O)cc1)NC(=O)[C@H](CCCCN)NC(=O)[C@@H]1CCCN1)C(C)C)[C@@H](C)O)C(=O)N[C@@H](C)C(=O)N[C@H](C(=O)O)[C@@H](C)O [HA(306–318)]	PKYVKQNTLK (m/z 1218 Da)
NRERRGIALDGKIKHE [hSA(291–306)]	NRERRGIALDGKIKHE (m/z 1892 Da) NRERRGIALDGKIK (m/z 1627 Da)
